For one test, the target named is T1, SteC1-457 (Salmonella enterica, UniProt D0ZIB5).
T1 construct: gene steC
The note with it: 5 μM MYL12A, 100 μM ATP with 20 kBq [γ-32P]ATP, 100 nM kinase, 10 mM MgCl2, pH 7.5, 30 °C.

The target in test [1] is SteC_(210-429) WT, minimal active kinase domain (Salmonella Typhimurium strain 14028s, UniProt D0ZIB5 210-429). Kind of test: BLI. Particulars: both partners purified.

Ends that are not written are not given here. * marks the point of attachment. Biotin = O=C1N[C@H]2[C@H](CS[C@H]2CCCCC(=O)*)N1

Sequence of SteC_(210-429) WT, minimal active kinase domain (D0ZIB5 210-429): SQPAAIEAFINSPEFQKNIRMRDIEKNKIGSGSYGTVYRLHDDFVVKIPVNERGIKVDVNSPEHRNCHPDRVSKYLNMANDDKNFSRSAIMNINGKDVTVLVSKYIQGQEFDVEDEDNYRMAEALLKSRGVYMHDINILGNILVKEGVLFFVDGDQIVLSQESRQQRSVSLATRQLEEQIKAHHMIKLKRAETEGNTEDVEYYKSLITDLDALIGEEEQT
T1 sequence (D0ZIB5 whole entry): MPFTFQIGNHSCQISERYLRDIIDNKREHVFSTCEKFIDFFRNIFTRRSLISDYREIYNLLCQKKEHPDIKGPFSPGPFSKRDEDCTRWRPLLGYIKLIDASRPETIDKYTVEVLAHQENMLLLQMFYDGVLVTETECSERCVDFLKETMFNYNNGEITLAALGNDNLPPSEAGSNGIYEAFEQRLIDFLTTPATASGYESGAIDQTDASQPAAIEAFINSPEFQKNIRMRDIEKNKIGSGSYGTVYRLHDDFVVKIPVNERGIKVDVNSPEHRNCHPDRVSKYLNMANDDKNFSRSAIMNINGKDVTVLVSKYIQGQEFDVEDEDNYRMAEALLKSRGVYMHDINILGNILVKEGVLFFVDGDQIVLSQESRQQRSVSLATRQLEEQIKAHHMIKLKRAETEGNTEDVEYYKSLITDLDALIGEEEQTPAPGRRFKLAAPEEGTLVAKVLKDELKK

On to `Nc1ncnc2c1ncn2[C@@H]1O[C@H](COP(=O)(O)OP(=O)(O)OP(=O)(O)O)[C@@H](O)[C@H]1O` [ATP], for which, at SteC1-457, the “radioactive kinase assay, SDS-PAGE autoradiography” value is “SteC1-457 mediated phosphorylation of MYL12A”.

B1: N-terminally biotinylated FMNL1 peptide (K190-K213) (peptide, UniProt O95466 190-213, looked up)
peptide: Biotin-KGPPSSVPKSRHLTIKLTPAHSRK
Turning to B1, the Kd in test [1] came to 7.9 µM.

For orientation: Kd means the concentration at which binding is half-saturated. Read a high Kd as weaker binding.

Source of the values: publication PMC13395416 (PLOS Pathogens, 2026).
